Measured values: ChEMBL document CHEMBL1136283, “Synthesis and glycosidase inhibitory activity of some N-substituted 6-deoxy-5a-carba-beta-DL- and L-galactopyranosylamines” (Bioorg Med Chem Lett, 2003)

Assays:
[1] = Inhibitory activity against beta-glucosidase in almond; set-up: species or system Prunus dulcis
Beta-galactosidase = biological target: T1, Beta-galactosidase (Bos taurus, UniProt Q58D55); assay: Inhibitory activity against beta-galactosidase in bovine liver; format: tissue-based
T1 sequence (Q58D55 whole entry): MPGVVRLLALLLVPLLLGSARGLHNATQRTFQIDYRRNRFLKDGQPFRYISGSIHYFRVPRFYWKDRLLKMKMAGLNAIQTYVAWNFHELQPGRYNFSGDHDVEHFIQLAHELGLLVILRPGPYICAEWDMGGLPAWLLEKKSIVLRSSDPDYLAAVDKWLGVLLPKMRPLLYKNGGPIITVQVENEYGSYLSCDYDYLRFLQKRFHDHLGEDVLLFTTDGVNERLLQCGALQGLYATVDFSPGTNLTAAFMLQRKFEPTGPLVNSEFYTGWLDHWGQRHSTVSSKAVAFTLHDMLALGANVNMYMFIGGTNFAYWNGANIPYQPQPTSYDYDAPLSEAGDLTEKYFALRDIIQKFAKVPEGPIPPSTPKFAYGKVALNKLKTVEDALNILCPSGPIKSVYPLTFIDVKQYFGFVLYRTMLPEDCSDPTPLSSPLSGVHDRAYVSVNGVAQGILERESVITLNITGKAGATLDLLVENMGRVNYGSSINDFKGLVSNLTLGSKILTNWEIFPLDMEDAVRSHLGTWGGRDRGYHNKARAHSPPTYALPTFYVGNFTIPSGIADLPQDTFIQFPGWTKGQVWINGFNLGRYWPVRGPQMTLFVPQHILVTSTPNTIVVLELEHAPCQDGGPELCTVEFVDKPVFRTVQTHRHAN

[2] = Inhibitory activity against beta-glucosidase in almond at pH 5.5; set-up: species or system Prunus dulcis
[3] = Inhibitory activity against beta-glucosidase in almond at pH 6.8; set-up: species or system Prunus dulcis

| SMILES | IC50 [1] | IC50 (Beta-galactosidase) | Ki [1] | Ki (Beta-galactosidase) | Ki [2] | Ki [3] |
| --- | --- | --- | --- | --- | --- | --- |
| CCCCCCNC1CC(C)C(O)C(O)C1O (stereo not drawn) | 0.73 µM | 3.7 µM | – | – | – | – |
| CCCCCCCCCCN[C@H]1CC(C)[C@@H](O)C(O)[C@@H]1O (stereo partly drawn) | 16.6 µM | 1 µM | – | – | – | – |
| CCCCCCCCCCNC1CC(C)C(O)C(O)C1O (stereo not drawn) | 2 µM | 0.2 µM | 0.4 µM | 0.009 µM | – | – |
| CCCCCCCCN[C@H]1CC(C)[C@@H](O)C(O)[C@@H]1O (stereo partly drawn) | 14.7 µM | 3.7 µM | – | – | – | – |
| CCCCCCCCNC1CC(C)C(O)C(O)C1O (stereo not drawn) | 1.5 µM | 0.7 µM | 3.2 µM | 0.11 µM | – | – |
| CC1C[C@H](NCCCCc2ccccc2)[C@@H](O)C(O)[C@@H]1O (stereo partly drawn) | 10.2 µM | 2.4 µM | – | – | – | – |
| CC1CC(NCCCCc2ccccc2)C(O)C(O)C1O (stereo not drawn) | 1.4 µM | 0.9 µM | 1.2 µM | 0.046 µM | – | – |
| CCCCCCCCCCCCN[C@H]1CC(C)[C@@H](O)C(O)[C@@H]1O (stereo partly drawn) | 3.6 µM | 3 µM | – | – | – | – |
| C[C@@H]1CC(NCCc2ccccc2)[C@@H](O)[C@@H](O)[C@@H]1O (stereo in doubt) | 0.38 µM | 5.7 µM | 0.057 µM | – | 0.39 µM | 0.057 µM |
| C[C@@H]1CC(NCCc2ccccc2)[C@@H](O)[C@@H](O)[C@@H]1O (stereo in doubt; 9e (D)) | – | – | – | – | – | 0.11 µM |
